Experimental data reported in patent US20250312473A1, “B7H3 ANTIBODY DRUG CONJUGATES” (BEONE MEDICINES I GMBH, priority 2022, published 2025).

Key:
[1] = system: NCI-H358:MDA-MB-453-nanoLuc = 10:1; assay: ADC bystander killing, NCI-H358/MDA-MB-453 (nano-Luc) co-culture; format: cell-based, human; settings: co-culture 10:1, 3D, 6 days
Protocol: Method: MDA-MB-453-nanoLuc cell line construction PT67-nanoLuc cells were cultured, then the cell-culture medium (containing the virus (nano-Luc gene)) was collected and filtered. MDA-MB-453 cells were seed in 6-well plates at 1E5 cells/well, and incubated at 37° C., 5% CO2, overnight. The PT67-nanoLuc cell medium and 8 ug/mli polybrene was added. The infection was repeated 3 times, every one day. Then the MDA-MB-453-nanoLuc cells were cultured with the addition of 1 mg/ml Geneticin for 5 days. The MDA-MB-453-nanoLuc cells were collected, and Nano-Glo reagent (Promega: N1120) was added to test the nano-Luc transfection efficiency.
Method: ADC Bystander Killing NCI-H358 & MDA-MB-453-nanoLuc (10:1), or MDA-MB-453-nanoLuc cels alone were seeded into 3D-96-well plates (Corning: 4520) at 80 μl/well, and Incubated at 37° C., 5% CO2, overnight. Fresh growth medium containing the varying concentrations of ADCs was added at 40 μl/well. The cells were incubated at 37° C., 5% CO2, 6 days. The 3D-plates were centrifuged at 1500 rpm, 25° C., […], then the supernatant was discarded.
The […] cell viability was detected by Nano-Glo reagent (Promega: N1120), 150 μl/well. The 3D-plates were allowed to incubate at room temperature for 10 minutes to stabilize the luminescent signal. Then the plates were analyzed with a microplate reader.

[2] = system: H1650 xenografts (B7H3 IHC 3+); assay: ADC in vivo efficacy study, H1650 xenografts; set-up: species or system BALB/c Nude mice; settings: for TGI (%) at T 28: day 28; for TGI (%) at T 30: day 30
Protocol: Female BALB/c Nude mice were subcutaneously implanted with 3×10^6 H1650 cells per 200 μL PBS/matrigel in the right flank. After inoculation, tumor volumes were determined twice weekly in two dimensions using a caliper, and were expressed in mm^3 using the formula: V=0.5(a×b^2) where a and b are the long and short dimensions of the tumor, respectively.
Partial regression (PR) was defined as tumor volume smaller than 50% of the starting tumor volume on the first day of dosing in three consecutive measurements and complete regression (CR) was defined as tumor volume less than 14 mm^3 in three consecutive measurements. Data is presented as mean tumor volume±standard error of the mean (SEM). Tumor growth inhibition (TGI) is calculated using formula (TGI):
[formula] • treated t=treated tumor volume at time t • treated t0=treated tumor volume at time 0 • placebo t=placebo tumor volume at time t • placebo t0=placebo tumor volume at time 0

Capan-1 = assay: ADC direct killing, 3D culture, Capan-1; format: cell-based, human; settings: 6 days
Protocol: Capan-1 is a cell line with epithelial morphology that was isolated from the pancreas of a person with pancreatic adenocarcinoma, and Capan-1 was purchased from ATCC. The base medium for Capan-1 is ATCC-formulated Iscove's Modified Dulbecco's Medium, Catalog No. 30-2005. To make the complete growth medium, fetal bovine serum was added to the base medium to a final concentration of 20% (Gibco, 10099-141C). The cell line was grown in a humidified 5% CO2 atmosphere at 37° C., and was regularly tested for the presence of mycoplasma with MycoAlert™ PLUS Mycoplasma Detection Kit (Lonza, LT07-710).
(§1) NCI-H1650, NCI-H1048, MDA-MB-453 (2E3/well) or Capan-1 (4E3/well) cells were seeded into 3D-96-well plates (Corning: 4520) at 80 μl/well and incubated at 37° C., 5% CO2, overnight.
(§2) Fresh growth medium containing the varying concentrations of ADCs was added at 40 µl/well. The cells were incubated at 37° C., 5% CO2, 6 days.
(§3) The cell viability was detected by 3D reagent (Promega, G9683), […]. The plates were allowed to incubate at room temperature for 30 minutes to stabilize the luminescent signal. Then the plates were analyzed with a microplate reader.

NCI-H1048 = assay: ADC direct killing, 3D culture, NCI-H1048; format: cell-based, human; settings: 6 days
Protocol: (§4) The base medium for NCI-H1048 is ATCC-formulated DMEM:F12 Medium Catalog No. 30-2006. To make the complete growth medium, fetal bovine serum was added to the base medium to a final concentration of 10% (Gibco, 10099-141C). The cell line was grown in a humidified 5% CO2 atmosphere at 37° C., and was regularly tested for the presence of mycoplasma with MycoAlert™ PLUS Mycoplasma Detection Kit (Lonza, LT07-710).
as §1, §2, §3

[3] = system: H1975 xenografts (B7H3 IHC 3+); assay: ADC in vivo efficacy study, H1975 xenografts; set-up: species or system BALB/c Nude mice; settings: study (5); 3 mpk (3 mg/kg) i.v. on day 1; day 31
NCI-H1650 = assay: ADC direct killing, 3D culture, NCI-H1650; format: cell-based, human; settings: 6 days
Protocol: as §4, with “NCI-H1650” for “NCI-H1048”, “RPMI-1640 Medium, ATCC 30-2001.” for “DMEM:F12 Medium Catalog No. 30-2006.”
as §1, §2, §3

[4] = HIC methods to evaluate ADC hydrophobicity (DAR8 HIC retention time); format: physicochemical; settings: HIC Method 2
Protocol: HPLC analysis was carried out under the following measurement conditions: • HPLC system: Waters ACQUITY ARC HPLC System • Detector: measurement wavelength: 280 nm • Column: MABPac HIC-10, 5 μm, 4.6×10 mm (Thermo) • Column temperature: 25° C. • Mobile phase A: 1.5 M ammonium sulfate, 50 mM sodium phosphate, pH 7.0 • Mobile phase B: 50 mM sodium phosphate, pH 7.0 • Gradient program: 20% B—20% B (0 min-1 min), 0% B-0% B (1 min-35 min), 20% B-20% B (35 min-40 min) • Flow rate: 0.5 mL/min
Sample preparation: The sample was diluted with initial mobile phase to 0.5 mg/mL.
DAR8 HIC retention time (min) is an indication of the relative hydrophobicity of an ADC. ADCs with higher DAR8 HIC retention have a higher hydrophobic property.

ADC3-A: "ADC3-A is the biosimilar ADC of DS7300a (benchmark)"; antibody MABX-9001a, average DAR 3.99
EC50 ([1]; Table 11): 9.8 nM
Emax (%) bystander killing ([1]; Table 11): 89.1%
EC50 ([1]; Table 12): 9.8 nM
Emax (%) bystander killing ([1]; Table 12): 89.1%
EC50 ([1]; Table 13): 5.4 nM
Emax (%) bystander killing ([1]; Table 13): 82.3%
EC50 ([1]; Table 14): 13 nM
Emax (%) bystander killing ([1]; Table 14): 89.5%
TGI (%) at T 28 ([2]; study (1), 3 mpk (3 mg/kg) i.v. on day 1): 53%
TGI (%) at T 28 ([2]; study (1), 10 mpk (10 mg/kg) i.v. on day 1): 86%
TGI (%) at T 30 ([2]; study (2), 10 mpk (10 mg/kg) i.v. on day 1): 85%
TGI (%) at T 30 ([2]; study (3), 10 mpk (10 mg/kg) i.v. on day 1): 85%
TGI (%) at T 28 ([2]; study (4), 10 mpk (10 mg/kg) i.v. on day 1): 70%
EC50 (Capan-1; Table 6, Capan-1 (Low)): 4 nM
Emax (%) (Capan-1; Table 6, Capan-1 (Low)): 66.7%
EC50 (Capan-1; Table 7, Capan-1 (Low)): 4 nM
Emax (%) (Capan-1; Table 7, Capan-1 (Low)): 66.7%
EC50 (Capan-1; Table 8, Capan-1 (Low)): 1.7 nM
Emax (%) (Capan-1; Table 8, Capan-1 (Low)): 71.4%
EC50 (NCI-H1048; Table 9, NCI-H1048 (Low)): 1.2 nM
Emax (%) (NCI-H1048; Table 9, NCI-H1048 (Low)): 98.9%
EC50 (NCI-H1048; Table 10, NCI-H1048 (Low)): 2.6 nM
Emax (%) (NCI-H1048; Table 10, NCI-H1048 (Low)): 99.0%
TGI (%) at T 31 [3]: 56%
EC50 (NCI-H1650; Table 6, NCI-H1650 (High)): 8.2 nM
Emax (%) (NCI-H1650; Table 6, NCI-H1650 (High)): 54.2%
EC50 (NCI-H1650; Table 7, NCI-H1650 (High)): 8.2 nM
Emax (%) (NCI-H1650; Table 7, NCI-H1650 (High)): 54.2%
EC50 (NCI-H1650; Table 8, NCI-H1650 (High)): 10.9 nM
Emax (%) (NCI-H1650; Table 8, NCI-H1650 (High)): 33.1%
EC50 (NCI-H1650; Table 9, NCI-H1650 (High)): 5.7 nM
Emax (%) (NCI-H1650; Table 9, NCI-H1650 (High)): 62.0%
EC50 (NCI-H1650; Table 10, NCI-H1650 (High)): 7.4 nM
Emax (%) (NCI-H1650; Table 10, NCI-H1650 (High)): 61.1%
HIC DAR8 RT (min) Method 2 [4]: 21.817 (Meth - od 2) min
